Measurements from article PMC6199744, “Development of Chemical Proteomics for the Folateome and Analysis of the Kinetoplastid Folateome” (ACS Infectious Diseases, 2018).
Read-outs that look alike come from different tables or passages of the source.

Key:
Assay type in all cases: binding
[1] = molecular target: T1, HeLa cell extract proteins (Homo sapiens, UniProt O43809)
T1 construct: endogenous in cells; host or cells: HeLa cell extract

[2] = molecular target: T2, HeLa cell extract proteins (Homo sapiens, UniProt O95831)
T2 construct: endogenous in cells; host or cells: HeLa cell extract
T2 sequence (O95831 102-613): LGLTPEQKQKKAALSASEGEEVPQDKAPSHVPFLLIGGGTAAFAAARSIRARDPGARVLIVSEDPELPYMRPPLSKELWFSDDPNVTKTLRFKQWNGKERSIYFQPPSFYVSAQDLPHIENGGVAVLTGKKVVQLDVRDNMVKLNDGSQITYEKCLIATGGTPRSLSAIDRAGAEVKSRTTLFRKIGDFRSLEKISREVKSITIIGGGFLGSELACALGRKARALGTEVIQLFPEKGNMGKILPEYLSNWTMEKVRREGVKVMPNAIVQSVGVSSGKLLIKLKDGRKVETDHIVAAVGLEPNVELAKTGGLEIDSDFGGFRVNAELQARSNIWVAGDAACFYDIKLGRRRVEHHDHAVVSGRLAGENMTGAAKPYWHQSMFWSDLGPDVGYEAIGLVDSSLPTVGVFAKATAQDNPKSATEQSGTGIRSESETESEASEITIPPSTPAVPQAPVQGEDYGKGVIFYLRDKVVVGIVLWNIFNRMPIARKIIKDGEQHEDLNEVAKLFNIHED

[3] = molecular target: T3, HeLa cell extract proteins (Homo sapiens, UniProt P00403)
T3 construct: endogenous in cells; host or cells: HeLa cell extract
T3 sequence (P00403 whole entry): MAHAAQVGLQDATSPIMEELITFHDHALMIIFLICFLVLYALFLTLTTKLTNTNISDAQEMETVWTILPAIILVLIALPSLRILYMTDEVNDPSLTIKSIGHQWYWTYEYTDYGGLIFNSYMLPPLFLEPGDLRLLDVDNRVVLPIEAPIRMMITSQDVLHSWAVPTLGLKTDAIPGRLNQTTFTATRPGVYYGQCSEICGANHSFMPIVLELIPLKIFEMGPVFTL

[4] = molecular target: T4, HeLa cell extract proteins (Homo sapiens, UniProt P17812)
T4 construct: endogenous in cells; host or cells: HeLa cell extract
T4 sequence (P17812 1-591): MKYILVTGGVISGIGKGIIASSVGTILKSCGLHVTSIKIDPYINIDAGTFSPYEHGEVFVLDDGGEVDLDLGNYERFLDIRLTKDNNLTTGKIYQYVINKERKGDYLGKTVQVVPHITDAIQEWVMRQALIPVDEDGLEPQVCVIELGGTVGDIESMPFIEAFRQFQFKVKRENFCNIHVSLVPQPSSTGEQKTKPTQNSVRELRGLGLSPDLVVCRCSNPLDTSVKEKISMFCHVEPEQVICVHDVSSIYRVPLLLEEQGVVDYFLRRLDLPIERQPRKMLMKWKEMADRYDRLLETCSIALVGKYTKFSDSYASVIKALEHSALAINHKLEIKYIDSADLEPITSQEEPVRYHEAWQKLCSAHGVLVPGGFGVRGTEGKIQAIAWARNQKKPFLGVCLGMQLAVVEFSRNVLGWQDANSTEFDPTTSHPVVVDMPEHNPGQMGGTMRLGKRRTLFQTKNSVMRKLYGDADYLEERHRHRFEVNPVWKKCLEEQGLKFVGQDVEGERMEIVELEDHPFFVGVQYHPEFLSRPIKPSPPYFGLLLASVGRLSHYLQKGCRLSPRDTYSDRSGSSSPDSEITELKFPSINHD

[5] = molecular target: T5, HeLa cell extract proteins (Homo sapiens, UniProt P28074)
T5 construct: endogenous in cells; host or cells: HeLa cell extract
T5 sequence (P28074 60-263): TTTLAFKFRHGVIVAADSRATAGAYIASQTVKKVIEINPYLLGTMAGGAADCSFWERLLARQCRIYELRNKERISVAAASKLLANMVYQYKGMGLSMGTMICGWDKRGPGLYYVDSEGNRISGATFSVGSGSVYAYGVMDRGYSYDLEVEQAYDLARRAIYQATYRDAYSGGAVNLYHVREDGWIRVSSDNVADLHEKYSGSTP

[6] = molecular target: T6, HeLa cell extract proteins (Homo sapiens, UniProt Q15437)
T6 construct: endogenous in cells; host or cells: HeLa cell extract
T6 sequence (Q15437 whole entry): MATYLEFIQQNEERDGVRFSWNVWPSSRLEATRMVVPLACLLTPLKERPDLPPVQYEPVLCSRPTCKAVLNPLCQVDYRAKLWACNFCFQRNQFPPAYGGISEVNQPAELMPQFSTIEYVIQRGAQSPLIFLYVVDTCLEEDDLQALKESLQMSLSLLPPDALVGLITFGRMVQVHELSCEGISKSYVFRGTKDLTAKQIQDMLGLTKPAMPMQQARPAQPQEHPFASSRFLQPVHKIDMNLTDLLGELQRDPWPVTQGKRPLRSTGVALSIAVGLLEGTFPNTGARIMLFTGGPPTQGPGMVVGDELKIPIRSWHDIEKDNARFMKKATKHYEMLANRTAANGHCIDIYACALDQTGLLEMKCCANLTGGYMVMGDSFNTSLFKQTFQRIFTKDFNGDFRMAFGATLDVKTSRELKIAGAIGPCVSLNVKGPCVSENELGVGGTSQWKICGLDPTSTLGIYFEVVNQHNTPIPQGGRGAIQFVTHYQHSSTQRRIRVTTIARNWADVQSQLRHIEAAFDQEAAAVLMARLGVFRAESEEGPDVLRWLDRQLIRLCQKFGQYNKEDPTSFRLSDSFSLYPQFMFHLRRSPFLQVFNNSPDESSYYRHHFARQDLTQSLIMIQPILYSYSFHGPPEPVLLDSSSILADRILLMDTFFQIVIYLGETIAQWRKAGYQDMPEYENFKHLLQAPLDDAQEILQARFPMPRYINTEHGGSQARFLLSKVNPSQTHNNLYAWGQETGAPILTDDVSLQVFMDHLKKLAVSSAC

[7] = molecular target: T7, HeLa cell extract proteins (Homo sapiens, UniProt Q96T76)
T7 construct: endogenous in cells; host or cells: HeLa cell extract
T7 sequence (Q96T76 1-1030): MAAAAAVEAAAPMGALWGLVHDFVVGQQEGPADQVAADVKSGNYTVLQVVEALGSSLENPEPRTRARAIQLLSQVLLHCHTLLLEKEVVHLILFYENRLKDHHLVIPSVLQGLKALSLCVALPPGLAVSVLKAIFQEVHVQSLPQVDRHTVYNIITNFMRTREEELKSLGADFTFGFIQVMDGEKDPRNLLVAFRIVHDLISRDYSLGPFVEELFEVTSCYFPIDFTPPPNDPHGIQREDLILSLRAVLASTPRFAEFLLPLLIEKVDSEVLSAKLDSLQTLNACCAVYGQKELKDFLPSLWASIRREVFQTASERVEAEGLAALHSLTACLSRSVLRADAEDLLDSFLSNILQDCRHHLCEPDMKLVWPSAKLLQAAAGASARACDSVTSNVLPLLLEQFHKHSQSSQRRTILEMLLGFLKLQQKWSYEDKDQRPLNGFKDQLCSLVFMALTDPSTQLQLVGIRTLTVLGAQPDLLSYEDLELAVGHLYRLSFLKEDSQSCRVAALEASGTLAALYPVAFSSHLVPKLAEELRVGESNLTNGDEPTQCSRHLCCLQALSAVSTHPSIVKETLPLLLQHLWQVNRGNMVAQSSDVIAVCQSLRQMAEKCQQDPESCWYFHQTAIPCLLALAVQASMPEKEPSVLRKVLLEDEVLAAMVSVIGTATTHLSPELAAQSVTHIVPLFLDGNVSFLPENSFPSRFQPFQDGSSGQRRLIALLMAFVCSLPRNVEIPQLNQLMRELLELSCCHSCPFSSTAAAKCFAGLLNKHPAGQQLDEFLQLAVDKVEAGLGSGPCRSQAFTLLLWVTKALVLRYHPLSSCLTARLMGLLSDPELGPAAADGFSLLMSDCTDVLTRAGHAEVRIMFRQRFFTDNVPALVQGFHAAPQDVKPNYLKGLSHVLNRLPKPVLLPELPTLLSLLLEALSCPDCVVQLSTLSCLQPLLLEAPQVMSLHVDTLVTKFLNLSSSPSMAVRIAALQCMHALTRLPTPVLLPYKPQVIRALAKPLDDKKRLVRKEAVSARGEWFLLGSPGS

T1 sequence (O43809 whole entry): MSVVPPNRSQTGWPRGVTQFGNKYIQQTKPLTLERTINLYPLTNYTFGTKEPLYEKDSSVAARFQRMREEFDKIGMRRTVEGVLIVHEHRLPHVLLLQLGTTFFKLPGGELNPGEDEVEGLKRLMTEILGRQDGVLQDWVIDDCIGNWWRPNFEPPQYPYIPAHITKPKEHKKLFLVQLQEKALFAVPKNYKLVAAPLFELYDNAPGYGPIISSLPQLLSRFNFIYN

SMILES: Nc1nc2c(c(=O)[nH]1)N(C=O)C(CNc1ccc(C(=O)N[C@@H](CCC(=O)O)C(=O)O)cc1)CN2 (stereo partly shown) [LEU, leucovorin]
- fold changes relative to vehicle control ([1]; protein NUDT21, HeLa): 1.11
- fold changes relative to vehicle control ([2]; protein AIFM1, HeLa): 1.01
- fold changes relative to vehicle control ([3]; protein COX2, HeLa): 1.05
- fold changes relative to vehicle control ([4]; HeLa, protein CTPS): 0.93
- fold changes relative to vehicle control ([5]; HeLa, protein PSMB5): 0.97
- fold changes relative to vehicle control ([6]; HeLa, protein SEC23B): 0.98
- fold changes relative to vehicle control ([7]; HeLa, protein MMS19): 0.87

SMILES: Nc1nc2[nH]cc(CCc3ccc(C(=O)N[C@@H](CCC(=O)O)C(=O)O)cc3)c2c(=O)[nH]1 [PTX, pemetrexed]
- fold changes relative to vehicle control [1]: 0.97
- fold changes relative to vehicle control [2]: 1.01
- fold changes relative to vehicle control [3]: 1.24
- fold changes relative to vehicle control [4]: 0.85
- fold changes relative to vehicle control [5]: 1
- fold changes relative to vehicle control [6]: 0.91
- fold changes relative to vehicle control [7]: 0.82

SMILES: CCCCCCOc1ccc(Cc2cnc(N)nc2N)cc1 [compound 1]
- fold changes relative to vehicle control ([1]; protein NUDT21, HeLa): 1.16
- fold changes relative to vehicle control ([2]; captured protein AIFM1, HeLa): 0.97
- fold changes relative to vehicle control ([3]; captured protein COX2, HeLa): 0.99
- fold changes relative to vehicle control ([4]; HeLa, protein CTPS): 0.99
- fold changes relative to vehicle control ([5]; protein PSMB5, HeLa): 1.11
- fold changes relative to vehicle control ([6]; HeLa, protein SEC23B): 1.01
- fold changes relative to vehicle control ([7]; captured protein MMS19, HeLa): 0.79

SMILES: CCCCCCOc1cccc(Cc2cnc(N)nc2N)c1 [compound 2]
- fold changes relative to vehicle control ([1]; protein NUDT21, HeLa): 1.28
- fold changes relative to vehicle control ([2]; captured protein AIFM1, HeLa): 1
- fold changes relative to vehicle control ([3]; captured protein COX2, HeLa): 0.95
- fold changes relative to vehicle control ([4]; HeLa, protein CTPS): 1.09
- fold changes relative to vehicle control ([5]; protein PSMB5, HeLa): 1.24
- fold changes relative to vehicle control ([6]; HeLa, protein SEC23B): 0.93
- fold changes relative to vehicle control ([7]; captured protein MMS19, HeLa): 0.94

SMILES: Nc1nc2cccc(-c3ccccc3)c2n1Cc1ccc(Cl)c(Cl)c1 [compound 3]
- fold changes relative to vehicle control ([1]; protein NUDT21, HeLa): 0.99
- fold changes relative to vehicle control ([2]; captured protein AIFM1, HeLa): 0.92
- fold changes relative to vehicle control ([3]; captured protein COX2, HeLa): 1.14
- fold changes relative to vehicle control ([4]; HeLa, protein CTPS): 0.95
- fold changes relative to vehicle control ([5]; protein PSMB5, HeLa): 0.95
- fold changes relative to vehicle control ([6]; HeLa, protein SEC23B): 1.04
- fold changes relative to vehicle control ([7]; captured protein MMS19, HeLa): 1.02

SMILES: NCCOCCOCC(=O)Nc1nc2ncc(CNc3ccc(C(=O)NC(CCC(=O)O)C(=O)O)cc3)nc2c(=O)[nH]1 (stereo not shown) [compound 6]
- fold changes relative to vehicle control ([1]; protein NUDT21, HeLa): 1
- fold changes relative to vehicle control ([2]; protein AIFM1, HeLa): 0.99
- fold changes relative to vehicle control ([3]; protein COX2, HeLa): 1.33
- fold changes relative to vehicle control ([4]; HeLa, protein CTPS): 0.95
- fold changes relative to vehicle control ([5]; HeLa, protein PSMB5): 1.05
- fold changes relative to vehicle control ([6]; HeLa, protein SEC23B): 0.88
- fold changes relative to vehicle control ([7]; HeLa, protein MMS19): 0.97

SMILES: NCCCNc1ccc(C(=O)NC(CCC(=O)O)C(=O)O)cc1 (stereo not shown) [compound 7]
- fold changes relative to vehicle control ([1]; protein NUDT21, HeLa): 0.98
- fold changes relative to vehicle control ([2]; protein AIFM1, HeLa): 1.06
- fold changes relative to vehicle control ([3]; protein COX2, HeLa): 1.27
- fold changes relative to vehicle control ([4]; HeLa, protein CTPS): 0.98
- fold changes relative to vehicle control ([5]; HeLa, protein PSMB5): 1
- fold changes relative to vehicle control ([6]; HeLa, protein SEC23B): 1.09
- fold changes relative to vehicle control ([7]; HeLa, protein MMS19): 1.02
